Data taken from patent US20180021467A1, “METHOD OF BLOCKING PERCEPTION OF MALODOR” (Monell Chemical Senses Center, priority 2015, published 2018).
Read-outs that look alike come from different tables or passages of the source.

What was measured:
TAAR5 [1] = biological target: T1, TAAR5 (Homo sapiens, UniProt O14804); experiment: Antagonist screen of odor library on TAAR5 with agonist TMA (Dual-Glo luciferase assay, Hana3A cells); assay type: cell-based; set-up: TAAR open reading frames were amplified from pooled human genomic DNA using Phusion polymerase and subcloned into a pCI expression vector; Rho tag (first 20 residues of human rhodopsin); expressed in transfected cells; host or cells: Hana3A cells; settings: for inhibition at 30 µM: read-out: Percent Inhibition
T1 sequence (O14804 1-337): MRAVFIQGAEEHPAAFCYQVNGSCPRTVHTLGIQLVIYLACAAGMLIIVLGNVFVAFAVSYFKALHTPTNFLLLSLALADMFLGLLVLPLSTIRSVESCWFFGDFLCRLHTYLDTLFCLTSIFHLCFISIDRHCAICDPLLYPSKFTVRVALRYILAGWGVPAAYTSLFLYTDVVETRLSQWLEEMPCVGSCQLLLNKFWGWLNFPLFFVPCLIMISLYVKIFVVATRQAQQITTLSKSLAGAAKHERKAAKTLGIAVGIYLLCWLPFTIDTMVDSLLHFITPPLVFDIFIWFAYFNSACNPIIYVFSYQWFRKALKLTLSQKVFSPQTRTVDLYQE
Experimental: We screened a TAAR of interest, TAAR5, with the agonist TMA added at the EC80 concentration, against a proprietary small-molecule library to identify antagonists. TAAR open reading frames were amplified from pooled human genomic DNA using Phusion polymerase and subcloned into a pCI expression vector (Promega) containing the first 20 residues of human rhodopsin (Rho tag). […] Hana3A cells were transfected with 5 ng/well of RTP1S, 5 ng/well of pRL-SV40, 10 ng/well of CRE-luciferase, 2.5 ng/well of M3, and 5 ng/well of odorant receptor. 1M odorant stocks were diluted in DMSO. 24 hours following transfection, transfection media was removed and replaced with the appropriate concentration of odor diluted from the 1M stocks in CD293 (Gibco). Four hours following odor stimulation luminescence was measured using a Synergy 2 plate reader (Biotek). All luminescence values were divided by the Renilla Luciferase activity to control for transfection efficiency in a given well.
We completed an antagonist screen of a proprietary library of odors, including the 52 odorous compounds identified in FIG. 4 at a concentration of 30 μM.

TAAR5 [2] = biological target: T1, TAAR5; experiment: Dose responses on TAAR5 in luciferase assay (antagonist dose-dependent inhibition with TMA at EC80; TMA dose response with antagonist at IC10, IC30, IC50); assay type: cell-based; set-up: TAAR open reading frames were amplified from pooled human genomic DNA using Phusion polymerase and subcloned into a pCI expression vector; Rho tag (first 20 residues of human rhodopsin); expressed in transfected cells; host or cells: Hana3A cells; settings: for IC10 concentration of antagonist: lowest of the three concentrations in FIG. 2; for IC30 concentration of antagonist: middle of the three concentrations in FIG. 2
Excerpt: We screened a TAAR of interest, TAAR5, with the agonist TMA added at the EC80 concentration, against a proprietary small-molecule library to identify antagonists. TAAR open reading frames were amplified from pooled human genomic DNA using Phusion polymerase and subcloned into a pCI expression vector (Promega) containing the first 20 residues of human rhodopsin (Rho tag). The sequences of the cloned receptors were verified by sequencing (3730xl Sequencer, ABI Biosystems). We used the Dual-Glo™ Luciferase Assay System (Promega) to measure receptor responses as previously described in Trimmer, C. et al 2014 High-throughput Analysis of Mammalian Olfactory Receptors: Measurement of Receptor Activation via Luciferase Activity. Journal of Visualized Experiments, (88). doi:10.3791/51640. Hana3A cells were transfected with 5 ng/well of RTP1S, 5 ng/well of pRL-SV40, 10 ng/well of CRE-luciferase, 2.5 ng/well of M3, and 5 ng/well of odorant receptor. 1M odorant stocks were diluted in DMSO. 24 hours following transfection, transfection media was removed and replaced with the appropriate concentration of odor diluted from the 1M stocks in CD293 (Gibco). Four hours following odor stimulation luminescence was measured using a Synergy 2 plate reader (Biotek). All luminescence values were divided by the Renilla Luciferase activity to control for transfection efficiency in a given well.
In a secondary experiment, we ran dose dependent inhibition responses for the top twelve antagonists, i.e., the top 12 compounds identified in FIG. 4. TMA was kept at the EC80 (500 μM) and the twelve antagonists were diluted in a dose response with the highest concentration at 1000 μM. The top five candidate compounds, i.e., phenethyl benzoate, trans-2-nonen-1-ol, isoeugenyl phenlacetate, tributyl-2-acetylcitrate, bis(2-methyl-3-furyl)disulfide, were rescreened using an antagonist dose response at 2500 μM. We determined the IC80 values for those five antagonists. Using those IC80 values, we completed a 3-fold dilution dose response of TMA, starting at 3000 μM, in the presence of our five candidate antagonists. […] It was difficult to determine if the five antagonists were competitive or non-competitive inhibitors using the very high IC80 concentrations of the antagonists.
In another experiment, we evaluated dose responses of TMA in the presence of the antagonist at their IC10, IC30 and IC50 concentrations.

[3] = test system: human perception of TMA odor ("fishy"); experiment: Human perceptual ratings of fishiness of TMA with antagonist or control odor (air-dilution olfactometer); assay type: in vivo; settings: human subjects, TMA 3 mM, 1 mM, 0.33 mM, odors intensity-balanced to 1 mM TMA
Experimental: We evaluated the efficacy of the in vitro antagonists on human perception. We asked 10 (FIG. 5A) or 29 (FIG. 5B) subjects to rate how “fishy” and how “pleasant” an odor was. The odors were delivered to the subject using an air-dilution olfactometer (Lundström, J. N., et al., 2010 International Journal of Psychophysiology, 78(2), 179-189; doi:10.1016/j.ijpsycho.2010.07.007) and each trial consisted of one concentration of trimethylamine (either 3 mM, 1 mM, 0.33 mM, or a water blank) combined with either an antagonist or a solvent blank. Subjects used a general labeled magnitude scale to rate how “fishy” the odor smelled and a scale from −10 to +10 to rate the pleasantness.
The antagonists and control odors were intensity-balanced to match the 1 mM concentration of TMA. Trans-2-nonen-1-ol was diluted in Diethyl phthalate (DEP); TMA was diluted in water with NaOH added; Linalool was diluted in DEP. In all trials subjects received air from jars containing water and DEP so that solvent presence could not be used as a cue to the presence of the test odor.

[4] = inhibition of TMA/TAAR5 response, test odor at 30 μM, TMA at EC80
[5] = TAAR5 luciferase, vs TMA, highest of the three concentrations in FIG. 2, read-out: IC50 concentration of antagonist

Molecule	inhibition at 30 µM (TAAR5 [1]; [4]) [%]	other results
CC(C)CCCC(C)CCO (stereo not drawn) [3,7-Dimethyl-1-octanol]	57.1	
C=CCN=C=S [Allyl isothiocyanate]	77.4	
O=C(OCc1ccccc1)c1ccccc1O [Benzyl salicylate]	74.2	
O=C(OCc1ccccc1)c1ccccc1 [Benzyl benzoate]	83.9	
C[C@@]12C=CC[C@H]1[C@@H]1CCC3=CC(=O)CC[C@]3(C)[C@H]1CC2 [Androstadienone, Androsta-4,16-dien-3-one]	76	
COc1ccc2cc(CCC(C)=O)ccc2c1 [Nabumetone]	73.8	
CCCCCCCCCCCCCCO [1-Tetradecanol]	54.1	
c1ccc(CSSCc2ccccc2)cc1 [Benzyl disulfide]	81	
CC(C=O)Cc1ccc2c(c1)OCO2 (stereo not drawn) [2-Methyl-3-(3,4-methylenedioxyphenyl)-propanal]	50.1	
Tributyl-2-Acetylcitrate		IC50 (TAAR5 [2]; [5]): 242 µM; IC10 concentration of antagonist (TAAR5 [2]; TAAR5 luciferase, vs TMA): 74.14 µM; IC30 concentration of antagonist (TAAR5 [2]; TAAR5 luciferase, vs TMA): 194.98 µM; Percent Inhibition (TAAR5 [1]; [4]): 87.83%
CCCCCC=O [Hexanal]	69.4	
Nc1ccccc1C(=O)OCCc1ccccc1 [Phenethyl anthranilate]	92.8	
CC/C=C\CCC=O [cis-4-Heptenal]	61.5	
CCCCCC/C=C/C(C)=O [3-Decen-2-one]	72.5	
C/C=C(\C=O)c1ccccc1 [2-Phenyl-2-butenal]	68.9	
O=C(OCCc1ccccc1)c1ccccc1O [Phenethyl salicylate]	85	
OCc1ccccc1 [benzyl alcohol]	62.5	
CC(C)=CCC/C(C)=C/CO [geraniol]	81.3	
C/C=C/c1ccc(OC(=O)Cc2ccccc2)c(OC)c1 [Isoeugenyl phenylacetate]	89.1	IC50 (TAAR5 [2]): 703 µM; IC10 concentration of antagonist (TAAR5 [2]; TAAR5 luciferase, vs TMA): 100 µM; IC30 concentration of antagonist (TAAR5 [2]; TAAR5 luciferase, vs TMA): 316.22 µM; effect on perceived fishy rating of TMA ([3]; listed as Isoeugenyl Phenylacetate): showed a similar pattern; effect on perceived fishy rating of TMA ([3]; listed as isoeugenyl phenylacetate): decreases fishy intensity
O=C(Cc1ccccc1)OCc1ccccc1 [Benzyl phenylacetate]	72.7	
SCc1ccccc1 [Benzyl mercaptan]	75.8	
CC(C)COC(=O)c1ccccc1 [Isobutyl benzoate]	63.3	

Molecule	inhibition at 30 µM (TAAR5 [1]; [4]) [%]	other results
O=C(Cc1ccccc1)Cc1ccccc1 [1,3-Diphenyl-2-propanone]	73.1	
CCCCCCC/C=C/C=O [2-decenal]	66.4	
O=C(OCCc1ccccc1)c1ccco1 [Phenethyl 2-furoate]	59.6	
O=C1CCCC=CCCCCCCCCCC1 [velvione, 5-Cyclohexadecen-1-one]	76	
OC1CSC(O)CS1 (stereo not drawn) [2,5-Dihydroxy-1,4-dithiane]	67.9	
CSCCC=O [3-(Methylthio)propionaldehyde]	54.5	
O=C1CCCCCCC/C=C/CCCCCCO1 [Isoambrettolide]	78.7	
CC/C=C/CC/C=C/C=O [Trans, trans-2,6-Nonadienal]	71.4	
CC(=O)C1(C)CC2=C(CCCC2(C)C)CC1C (stereo not drawn) [iso E super, isocyclemone E]	69.6	
CCc1occc(=O)c1O [ethyl maltol, 2-Ethyl-3-hydroxy-4H-pyran-4-one]	72.5	
O=C(Cc1ccccc1)OCCc1ccccc1 [Phenethyl phenylacetate]	88.9	
C=CC(C)(O)CCC=C(C)C (stereo not drawn) [linalool, reference compound]		effect on perceived fishy rating of TMA [3]: no effect on these fishy ratings; effect on perceived fishy rating of TMA ([3]; listed as Linalool): does not; in vitro antagonism (TAAR5 [1]; hTAAR5): did not show in vitro antagonism
O=CC1CCCCCC1 [Cycloheptanecarbaldehyde]	64.4	
COC(=O)c1ccccc1/N=C/CC(C)CCCC(C)(C)O (stereo not drawn) [aurantiol]	79.6	
Cc1occc1SSc1ccoc1C [Bis(2-Methyl-3-furyl) disulfide]	88.3	IC50 (TAAR5 [2]; [5]): 158 µM; IC10 concentration of antagonist (TAAR5 [2]; TAAR5 luciferase, vs TMA): 31.62 µM; IC30 concentration of antagonist (TAAR5 [2]; TAAR5 luciferase, vs TMA): 77.62 µM
CCCCCCCCCCCCCC(=O)O [myristic acid]	59.1	
O=C(OCCc1ccccc1)c1ccccc1 [Phenethyl benzoate]	93.5	IC50 (TAAR5 [2]; [5]): 479 µM; IC10 concentration of antagonist (TAAR5 [2]; TAAR5 luciferase, vs TMA): 50.11 µM; IC30 concentration of antagonist (TAAR5 [2]; TAAR5 luciferase, vs TMA): 251.19 µM
CC1COCc2cc3c(cc21)C(C)(C)C(C)C3(C)C (stereo not drawn) [Galaxolide]	71.2	
CCCCCCCCCCCC(=O)O [Lauric acid]	86	
CCCCCC(C=O)=Cc1ccccc1 [Alpha-Amylcinnamaldehyde]	75.8	
Cc1ccc(C(C)C)cc1O [Carvacrol]	52.2	
O=C1CCCCCCCCCCCCCCO1 [Thibetolide]	81	
